# Results taken from patent publication US10584111B2, “4-(3-cyanophenyl)-6-pyridinylpyrimidine mGlu5 modulators” (Heptares Therapeutics Limited, priority 2013, dated 2020).
# System: CD-1 mice
# Assay: In vivo efficacy test - marble burying
# Set-up: species or system mouse
# Settings: male CD-1 mice, 10 and 30 mg/kg po, dosed 30 min prior to test; doses tested 1, 3, 10 and 30 mg/kg; one-way ANOVA with Dunnett's post-hoc test
compound,measurement,value
"N#Cc1cc(Cl)cc(-c2cc(-c3ccc(F)cn3)ncn2)c1 [Example 17, 3-chloro-5-[6-(5-fluoropyridin-2-yl)pyrimidin-4-yl]benzonitrile]",number of marbles buried versus vehicle group,statistically significant decrease in the number of marbles buried
